Assay results taken from patent publication US11547697B2, “Heterocyclic compounds and uses thereof” (MILLENNIUM PHARMACEUTICALS, INC., priority 2009, dated 2023).
Like-named read-outs stand apart in the source and are kept apart here.

Legend:
p110β/p85α = p110β/p85α (Homo sapiens (Human), UniProt P42338); assay: PI 3-Kinase (human) HTRF assay, p110β/p85α; type: biochemical
p110γ = p110γ (Homo sapiens (Human), UniProt P48736); assay: PI 3-Kinase (human) HTRF assay, p110γ; type: biochemical
p110δ/p85α = p110δ/p85α (Homo sapiens (Human), UniProt O00329); assay: PI 3-Kinase (human) HTRF assay, p110δ/p85α; type: biochemical
Protocol: An exemplary system is PI 3-Kinase (human) HTRF™ Assay from Upstate. […] Briefly, the assay is a time resolved FRET assay that indirectly measures PIP3 product formed by the activity of a PI3-K. The kinase reaction is performed in a microtitre plate (e.g., a 384 well microtitre plate). The total reaction volume is approximately 20 ul per well. In the first step, each well receives 2 ul of test compound in 20% dimethylsulphoxide resulting in a 2% DMSO final concentration. Next, approximately 14.5 ul of a kinase/PIP2 mixture (diluted in 1× reaction buffer) is added per well for a final concentration of 0.25-0.3 ug/ml kinase and 10 μM PIP2. The plate is sealed and incubated for 15 minutes at room temperature. To start the reaction, 3.5 ul of ATP (diluted in 1× reaction buffer) is added per well for a final concentration of 10 μM ATP. The plate is sealed and incubated for 1 hour at room temperature. The reaction is stopped by adding 5 ul of Stop Solution per well and then 5 ul of Detection Mix is added per well. The plate is sealed, incubated for 1 hour at room temperature, and then read on an appropriate plate reader. Data is analyzed and IC50s are generated using GraphPad Prism 5. […] For PI3K α, β, δ, and γ, the nM concentration of inhibitor to reach IC50 is provided.

p110α/p85α = p110α/p85α (Homo sapiens (Human), UniProt P42336); assay: PI 3-Kinase (human) HTRF assay, p110α/p85α; type: biochemical
[1] = test system: tumor cells with a PI3Kα mutation (e.g., MDA-MB-361 and T47D); assay: Proliferation of tumor cells with PI3Kα mutation; type: cell-based; settings: Homo sapiens
[2] = in vitro, read-out: PI3K β IC50
[3] = in vitro, read-out: PI3K γ IC50
[4] = in vitro, read-out: PI3K δ IC50
[5] = in vitro, read-out: PI3K α IC50
[6] = T47D cells, read-out: T47D proliferation IC50
[7] = PC3, read-out: PC3 proliferation In Vitro IC50

Chain of p110δ/p85α (O00329 whole entry): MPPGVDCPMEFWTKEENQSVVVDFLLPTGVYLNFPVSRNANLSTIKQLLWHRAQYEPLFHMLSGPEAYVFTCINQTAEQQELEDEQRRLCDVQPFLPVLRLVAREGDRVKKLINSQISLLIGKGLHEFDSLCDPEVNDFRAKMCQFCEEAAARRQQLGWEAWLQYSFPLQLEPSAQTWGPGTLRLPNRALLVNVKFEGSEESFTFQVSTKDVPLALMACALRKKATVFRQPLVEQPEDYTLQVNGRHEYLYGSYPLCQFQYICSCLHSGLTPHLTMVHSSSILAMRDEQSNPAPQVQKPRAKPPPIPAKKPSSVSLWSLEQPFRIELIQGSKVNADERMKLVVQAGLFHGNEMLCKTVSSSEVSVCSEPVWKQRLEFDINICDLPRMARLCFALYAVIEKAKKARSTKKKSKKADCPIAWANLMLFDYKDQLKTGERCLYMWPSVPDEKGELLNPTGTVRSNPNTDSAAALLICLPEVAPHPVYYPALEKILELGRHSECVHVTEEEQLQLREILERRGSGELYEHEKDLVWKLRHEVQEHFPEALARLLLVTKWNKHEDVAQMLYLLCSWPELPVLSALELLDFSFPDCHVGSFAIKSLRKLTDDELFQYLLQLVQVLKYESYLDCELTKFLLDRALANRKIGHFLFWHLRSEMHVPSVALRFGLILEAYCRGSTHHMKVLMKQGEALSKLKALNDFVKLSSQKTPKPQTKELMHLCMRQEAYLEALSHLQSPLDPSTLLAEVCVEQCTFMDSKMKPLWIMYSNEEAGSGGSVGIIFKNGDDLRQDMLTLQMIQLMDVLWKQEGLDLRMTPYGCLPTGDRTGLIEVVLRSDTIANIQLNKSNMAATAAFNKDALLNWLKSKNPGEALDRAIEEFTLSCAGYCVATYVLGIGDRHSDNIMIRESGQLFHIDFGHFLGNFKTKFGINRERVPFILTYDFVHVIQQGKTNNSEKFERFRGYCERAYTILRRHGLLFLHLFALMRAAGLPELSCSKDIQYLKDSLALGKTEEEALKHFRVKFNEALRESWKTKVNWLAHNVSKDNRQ
Chain of p110δ/p85α (P27986 whole entry partner): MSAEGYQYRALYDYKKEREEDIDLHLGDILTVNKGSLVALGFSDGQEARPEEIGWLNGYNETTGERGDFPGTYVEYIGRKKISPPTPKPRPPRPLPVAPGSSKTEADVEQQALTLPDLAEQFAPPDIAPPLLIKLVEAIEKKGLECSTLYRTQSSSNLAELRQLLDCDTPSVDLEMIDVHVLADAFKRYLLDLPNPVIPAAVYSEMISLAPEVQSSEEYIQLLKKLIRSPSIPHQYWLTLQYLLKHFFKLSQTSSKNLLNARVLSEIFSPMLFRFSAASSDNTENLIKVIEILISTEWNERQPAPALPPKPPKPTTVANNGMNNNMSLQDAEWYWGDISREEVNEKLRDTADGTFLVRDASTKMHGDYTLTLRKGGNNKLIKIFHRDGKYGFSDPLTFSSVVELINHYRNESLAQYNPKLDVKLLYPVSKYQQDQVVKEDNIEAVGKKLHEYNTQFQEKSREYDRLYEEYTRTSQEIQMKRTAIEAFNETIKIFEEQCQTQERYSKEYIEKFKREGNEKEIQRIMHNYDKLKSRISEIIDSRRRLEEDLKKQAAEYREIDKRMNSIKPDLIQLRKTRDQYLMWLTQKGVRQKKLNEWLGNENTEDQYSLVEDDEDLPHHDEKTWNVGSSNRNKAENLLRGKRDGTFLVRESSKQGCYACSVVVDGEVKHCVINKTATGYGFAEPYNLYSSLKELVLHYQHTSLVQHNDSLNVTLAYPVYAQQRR
Chain of p110γ (P48736 whole entry): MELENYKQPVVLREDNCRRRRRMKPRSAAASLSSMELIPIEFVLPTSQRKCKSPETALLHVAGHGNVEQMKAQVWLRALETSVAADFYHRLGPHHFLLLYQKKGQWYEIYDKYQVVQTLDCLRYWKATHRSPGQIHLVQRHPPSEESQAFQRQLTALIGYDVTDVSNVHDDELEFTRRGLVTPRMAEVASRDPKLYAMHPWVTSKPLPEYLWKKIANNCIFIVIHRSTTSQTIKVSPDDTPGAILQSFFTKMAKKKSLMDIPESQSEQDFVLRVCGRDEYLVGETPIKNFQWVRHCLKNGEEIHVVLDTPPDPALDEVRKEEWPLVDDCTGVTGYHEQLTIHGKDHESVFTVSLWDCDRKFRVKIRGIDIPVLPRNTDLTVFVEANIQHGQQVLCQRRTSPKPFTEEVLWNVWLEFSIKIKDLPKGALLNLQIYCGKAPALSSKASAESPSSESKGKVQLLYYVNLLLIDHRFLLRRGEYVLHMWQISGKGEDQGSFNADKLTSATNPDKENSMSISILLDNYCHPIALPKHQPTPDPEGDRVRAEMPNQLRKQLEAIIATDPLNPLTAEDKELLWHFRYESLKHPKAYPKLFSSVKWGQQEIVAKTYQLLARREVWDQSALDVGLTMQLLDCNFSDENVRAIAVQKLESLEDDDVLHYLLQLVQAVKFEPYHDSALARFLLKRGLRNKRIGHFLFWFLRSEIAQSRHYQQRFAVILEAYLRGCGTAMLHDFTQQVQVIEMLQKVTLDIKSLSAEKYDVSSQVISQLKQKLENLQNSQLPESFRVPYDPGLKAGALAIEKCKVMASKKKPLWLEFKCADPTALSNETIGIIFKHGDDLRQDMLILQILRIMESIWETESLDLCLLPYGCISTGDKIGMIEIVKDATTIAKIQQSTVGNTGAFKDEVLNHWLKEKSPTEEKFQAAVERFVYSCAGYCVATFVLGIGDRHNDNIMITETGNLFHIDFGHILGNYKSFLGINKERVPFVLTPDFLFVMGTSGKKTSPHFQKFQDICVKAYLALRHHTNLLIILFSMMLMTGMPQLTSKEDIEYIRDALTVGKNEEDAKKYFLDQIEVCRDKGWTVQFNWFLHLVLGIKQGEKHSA
Chain of p110α/p85α (P42336 whole entry): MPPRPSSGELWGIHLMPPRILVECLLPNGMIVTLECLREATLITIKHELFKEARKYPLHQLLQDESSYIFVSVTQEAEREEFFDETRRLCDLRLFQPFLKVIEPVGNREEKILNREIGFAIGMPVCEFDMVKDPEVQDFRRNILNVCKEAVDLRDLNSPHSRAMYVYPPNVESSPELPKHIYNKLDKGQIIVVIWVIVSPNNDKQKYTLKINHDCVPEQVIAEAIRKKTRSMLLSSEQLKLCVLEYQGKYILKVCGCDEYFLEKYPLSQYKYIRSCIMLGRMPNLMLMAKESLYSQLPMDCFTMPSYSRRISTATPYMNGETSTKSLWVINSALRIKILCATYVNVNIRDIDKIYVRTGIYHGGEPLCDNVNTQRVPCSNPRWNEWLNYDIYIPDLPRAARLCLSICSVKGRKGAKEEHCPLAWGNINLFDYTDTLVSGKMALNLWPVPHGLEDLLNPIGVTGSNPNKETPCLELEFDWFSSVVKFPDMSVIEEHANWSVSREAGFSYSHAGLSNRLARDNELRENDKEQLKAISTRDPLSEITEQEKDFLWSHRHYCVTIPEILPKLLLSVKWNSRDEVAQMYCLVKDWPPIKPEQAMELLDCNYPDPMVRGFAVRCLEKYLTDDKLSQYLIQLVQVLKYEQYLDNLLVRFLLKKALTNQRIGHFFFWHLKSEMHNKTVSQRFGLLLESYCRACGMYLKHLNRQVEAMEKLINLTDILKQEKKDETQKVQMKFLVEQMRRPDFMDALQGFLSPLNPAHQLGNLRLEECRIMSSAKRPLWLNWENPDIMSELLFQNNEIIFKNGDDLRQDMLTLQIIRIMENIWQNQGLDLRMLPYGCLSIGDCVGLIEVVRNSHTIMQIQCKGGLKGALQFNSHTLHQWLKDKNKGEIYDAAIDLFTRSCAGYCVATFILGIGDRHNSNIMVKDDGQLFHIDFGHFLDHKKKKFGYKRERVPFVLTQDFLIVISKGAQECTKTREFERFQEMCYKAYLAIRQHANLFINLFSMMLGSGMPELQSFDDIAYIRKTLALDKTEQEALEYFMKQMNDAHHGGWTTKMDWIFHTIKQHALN
Chain of p110α/p85α (P27986 whole entry partner): as the sequence (P27986 whole entry partner) above
Chain of p110β/p85α (P42338 whole entry): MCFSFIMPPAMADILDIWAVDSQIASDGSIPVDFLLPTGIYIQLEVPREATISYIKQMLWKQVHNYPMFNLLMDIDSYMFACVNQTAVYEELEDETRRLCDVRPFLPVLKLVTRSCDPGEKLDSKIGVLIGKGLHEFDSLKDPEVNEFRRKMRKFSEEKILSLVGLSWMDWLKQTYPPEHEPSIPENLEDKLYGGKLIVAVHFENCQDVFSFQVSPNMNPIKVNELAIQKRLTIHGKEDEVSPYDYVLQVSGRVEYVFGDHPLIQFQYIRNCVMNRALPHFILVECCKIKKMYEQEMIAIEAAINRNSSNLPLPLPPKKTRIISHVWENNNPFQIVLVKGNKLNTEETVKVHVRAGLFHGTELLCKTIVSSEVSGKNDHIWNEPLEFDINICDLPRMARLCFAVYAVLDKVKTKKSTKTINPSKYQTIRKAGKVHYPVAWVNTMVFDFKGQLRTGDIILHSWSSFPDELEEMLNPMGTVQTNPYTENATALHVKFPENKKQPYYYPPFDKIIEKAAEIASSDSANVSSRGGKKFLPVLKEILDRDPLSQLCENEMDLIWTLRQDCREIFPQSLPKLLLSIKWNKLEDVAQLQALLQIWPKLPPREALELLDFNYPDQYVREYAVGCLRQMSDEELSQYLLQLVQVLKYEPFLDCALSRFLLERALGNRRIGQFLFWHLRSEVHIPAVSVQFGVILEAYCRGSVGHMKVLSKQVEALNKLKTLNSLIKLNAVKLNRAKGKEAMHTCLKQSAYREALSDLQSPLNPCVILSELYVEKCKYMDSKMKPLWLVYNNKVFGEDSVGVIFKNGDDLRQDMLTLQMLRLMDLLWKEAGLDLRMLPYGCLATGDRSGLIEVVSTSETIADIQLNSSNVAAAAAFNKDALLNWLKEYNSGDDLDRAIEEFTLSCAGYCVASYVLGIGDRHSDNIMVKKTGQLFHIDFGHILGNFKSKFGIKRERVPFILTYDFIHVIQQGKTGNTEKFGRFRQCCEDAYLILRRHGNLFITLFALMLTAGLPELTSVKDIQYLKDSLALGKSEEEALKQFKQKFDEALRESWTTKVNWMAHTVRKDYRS
Chain of p110β/p85α (P27986 whole entry partner): as the sequence (P27986 whole entry partner) above

SMILES	IC50 (p110β/p85α; [2]) [µM]	IC50 (p110γ; [3]) [µM]	IC50 (p110δ/p85α; [4]) [µM]	IC50 (p110α/p85α; [5]) [µM]	IC50 [1, 6] [µM]	IC50 (p110β/p85α; read-out: PI3K β In Vitro IC50) [µM]	IC50 (p110γ; read-out: PI3K γ In Vitro IC50) [µM]	IC50 (p110δ/p85α; read-out: PI3K δ In Vitro IC50) [µM]	IC50 (p110α/p85α; read-out: PI3K α In Vitro IC50) [µM]	IC50 [1, 7] [µM]
Nc1nc2cc(-c3ccc4ncc(C(=O)N5CC(O)C5)n4c3)ccc2o1 [compound 200]	< 10	< 0.1	< 10	< 0.1	< 10	–	–	–	–	–
Nc1nc2cc(-c3ccc4ncc(C(=O)N5CCC(O)C5)n4c3)ccc2o1 (stereo not shown) [compound 202]	< 10	< 1	< 10	< 0.1	< 1	–	–	–	–	–
C[C@H](N)C(=O)N1CCN(c2cnc3ccc(-c4ccc5oc(N)nc5c4)cc3n2)CC1 [compound 207]	< 0.1	< 0.1	< 1	< 0.1	< 1	–	–	–	–	–
C[C@@H](N)C(=O)N1CCN(c2cnc3ccc(-c4ccc5oc(N)nc5c4)cc3n2)CC1 [compound 208]	< 1	< 10	< 1	< 0.1	< 10	–	–	–	–	–
Nc1nc2cc(-c3ccc4ncc(N5CCC(O)C5)nc4c3)ccc2o1 (stereo not shown) [compound 209]	< 1	< 0.1	< 10	< 0.1	< 10	–	–	–	–	–
CC(=O)N1CCC(Nc2ncnc3ccc(-c4ccc5oc(N)nc5c4)nc23)CC1 [compound 211]	< 0.1	< 0.1	< 0.1	< 0.1	< 1	–	–	–	–	–
CN1CCC(Nc2ncnc3ccc(-c4ccc5oc(N)nc5c4)nc23)CC1 [compound 212]	< 1	< 1	< 1	< 0.1	< 1	–	–	–	–	–
Nc1nc2cc(-c3ccc4sc(N)nc4c3)ccc2o1 [compound 248]	< 1	< 1	< 10	< 10	< 10	–	–	–	–	–
Nc1nc2cc(-c3ccc4ncc(C(=O)N5CCN(C6CC6)CC5)n4c3)ccc2o1 [compound 263]	< 10	< 10	< 10	< 0.1	< 10	–	–	–	–	–
Nc1nc2cc(-c3ccc4ncc(C(=O)N5CC[C@H](O)C5)n4c3)ccc2o1 [compound 264]	< 10	< 1	< 10	< 0.1	< 1	–	–	–	–	–
Nc1nc2cc(-c3ccc4ncc(C(=O)N5CC[C@@H](O)C5)n4c3)ccc2o1 [compound 265]	< 10	< 0.1	< 10	< 0.1	< 1	–	–	–	–	–
Nc1nc2cc(-c3ccc4ncc(C(=O)N5CC(N6CCOCC6)C5)n4c3)ccc2o1 [compound 266]	< 10	< 1	< 1	< 0.1	< 10	–	–	–	–	–
C[C@H]1CN(C(=O)C2CN(c3cnc4ccc(-c5ccc6oc(N)nc6c5)cc4n3)C2)CCN1 [compound 268]	< 10	< 1	< 10	< 0.1	< 1	–	–	–	–	–
CC(C)[C@H](N)C(=O)N1CCN(c2cnc3ccc(-c4ccc5oc(N)nc5c4)cc3n2)CC1 [compound 269]	< 1	< 10	< 1	< 0.1	< 10	–	–	–	–	–
CN1CCN(CCNc2cnc3ccc(-c4ccc5oc(N)nc5c4)cc3n2)CC1 [compound 275]	< 1	< 1	< 1	< 0.1	< 1	–	–	–	–	–
Nc1nc2cc(-c3ccc4ncc(N5CCN(C(=O)CN6CCCC6)CC5)nc4c3)ccc2o1 [compound 278]	< 1	< 1	< 10	< 0.1	< 1	–	–	–	–	–

SMILES	IC50 (p110β/p85α; [2]) [µM]	IC50 (p110γ; [3]) [µM]	IC50 (p110δ/p85α; [4]) [µM]	IC50 (p110α/p85α; [5]) [µM]	IC50 [1, 6] [µM]	IC50 (p110β/p85α; read-out: PI3K β In Vitro IC50) [µM]	IC50 (p110γ; read-out: PI3K γ In Vitro IC50) [µM]	IC50 (p110δ/p85α; read-out: PI3K δ In Vitro IC50) [µM]	IC50 (p110α/p85α; read-out: PI3K α In Vitro IC50) [µM]	IC50 [1, 7] [µM]
CCN(CC)CC(=O)N1CCN(c2cnc3ccc(-c4ccc5oc(N)nc5c4)cc3n2)CC1 [compound 279]	< 10	< 10	< 10	< 0.1	< 1	–	–	–	–	–
NC(=O)[C@H]1CCCN1C(=O)C1CN(c2cnc3ccc(-c4ccc5oc(N)nc5c4)cc3n2)C1 [compound 284]	< 10	< 1	< 10	< 0.1	< 10	–	–	–	–	–
CC(C)N1CCN(C(=O)C2CN(c3cnc4ccc(-c5ccc6oc(N)nc6c5)cc4n3)C2)CC1 [compound 285]	< 10	< 1	< 1	< 0.1	< 1	–	–	–	–	–
Nc1nc2cc(-c3ccc4ncc(N5CCN(C(=O)C6(N)CCC6)CC5)nc4c3)ccc2o1 [compound 286]	< 1	< 0.1	< 1	< 0.1	< 1	–	–	–	–	–
Nc1nc2cc(-c3ccc4ncc(N5CC(C(=O)N6CCN(CC7CC7)CC6)C5)nc4c3)ccc2o1 [compound 287]	< 10	< 1	< 1	< 0.1	< 10	–	–	–	–	–
Nc1nc2cc(-c3ccc4ncc(C(=O)NCCCN5CCOCC5)n4c3)ccc2o1 [compound 288]	< 1	< 10	< 1	< 1	< 10	–	–	–	–	–
Nc1nc2cc(-c3ccc4ncc(C(=O)NCCCN5CCCC5)n4c3)ccc2o1 [compound 293]	< 1	< 1	< 0.1	< 0.1	< 1	–	–	–	–	–
Nc1nc2cc(-c3ccc4ncc(N5CCN(C(=O)[C@H](N)CO)CC5)nc4c3)ccc2o1 [compound 299]	< 1	< 0.1	< 0.1	< 0.1	< 1	–	–	–	–	–
Nc1nc2cc(-c3ccc4ncc(N5CC(N6CCN(CCO)CC6)C5)nc4c3)ccc2o1 [compound 333]	< 10	< 10	< 1	< 0.1	< 1	–	–	–	–	–
Nc1nc2cc(-c3ccc4ncc(N5CC(N6CCS(=O)(=O)CC6)C5)nc4c3)ccc2o1 [compound 334]	< 10	< 10	< 10	< 0.1	< 1	–	–	–	–	–
Cc1cn(C2CCN(c3cnc4ccc(-c5ccc6oc(N)nc6c5)cc4n3)CC2)cn1 [compound 338]	< 10	< 10	< 10	< 0.1	< 10	–	–	–	–	–
C[C@@H]1CN(C2CN(c3cnc4ccc(-c5ccc6oc(N)nc6c5)cc4n3)C2)CCN1 [compound 355]	< 10	< 10	< 1	< 0.1	< 1	–	–	–	–	–
Nc1nc2cc(-c3ccn4ncc(-c5ccncc5)c4c3)ccc2o1 [compound 356]	< 0.1	< 0.1	< 0.1	< 0.1	< 1	–	–	–	–	–
O=C(c1cnc2ccc(-c3cnc(Cl)c(NS(=O)(=O)c4ccccc4)c3)cn12)N1CCOCC1 [compound 451]	–	–	–	–	–	< 1	< 0.1	< 0.1	< 0.1	< 1
O=C(c1cnc2ccc(-c3cnc(Cl)c(NS(=O)(=O)c4ccccc4F)c3)cn12)N1CCOCC1 [compound 452]	–	–	–	–	–	< 1	< 0.1	< 0.1	< 0.1	< 10
O=C(c1cnc2ccc(-c3cnc(Cl)c(NS(=O)(=O)c4ccc(F)cc4)c3)cn12)N1CCOCC1 [compound 457]	–	–	–	–	–	< 0.1	< 0.1	< 0.1	< 0.1	< 1
